Results as given in ChEMBL document CHEMBL5126528, “Recent strategies targeting Embryonic Ectoderm Development (EED) for cancer therapy: Allosteric inhibitors, PPI inhibitors, and PROTACs” (Eur J Med Chem, 2022).
In brackets after ≈: the same amount, converted by molar mass. Structures can show the parent of a compound that is named as a salt.

Tests used:
[1] = Binding affinity to EZH2-EED (unknown origin) protein interaction assessed as inhibition constant by FP binding assay; design: species or system Homo sapiens
[2] = Inhibition of EZH2-EED (unknown origin) protein interaction by FP binding assay; design: species or system Homo sapiens
Pfeiffer [3] = experiment: Antitumor activity against human Pfeiffer cells xenografted in NOD/SCID mouse assessed as tumor growth inhibition at 100 mg/kg, bid, po for 36 days relative to control; assay type: functional; conditions: 864 h, time 36 day, read-out: TGI
Polycomb protein EED [4] = target: T1, Polycomb protein EED (Homo sapiens, UniProt O75530); experiment: Inhibition of EED (unknown origin)
T1 sequence (O75530 whole entry): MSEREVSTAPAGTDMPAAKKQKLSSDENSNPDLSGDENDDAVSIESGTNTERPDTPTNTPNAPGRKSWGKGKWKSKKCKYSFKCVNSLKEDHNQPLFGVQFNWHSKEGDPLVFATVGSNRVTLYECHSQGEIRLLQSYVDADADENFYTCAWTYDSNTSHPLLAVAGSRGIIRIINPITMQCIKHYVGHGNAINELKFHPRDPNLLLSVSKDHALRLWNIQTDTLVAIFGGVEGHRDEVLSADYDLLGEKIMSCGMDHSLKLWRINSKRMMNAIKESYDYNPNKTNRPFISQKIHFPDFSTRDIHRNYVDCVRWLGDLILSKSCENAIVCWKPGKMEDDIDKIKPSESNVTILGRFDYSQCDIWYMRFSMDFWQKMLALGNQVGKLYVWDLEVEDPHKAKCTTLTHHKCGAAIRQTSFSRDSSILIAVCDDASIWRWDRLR

KARPAS-422 [5] = experiment: Antitumor activity against human KARPAS-422 cells xenografted in NOD/SCID mouse assessed as tumor growth inhibition at 100 mg/kg, bid, po for 36 days relative to control; assay type: functional; conditions: KARPAS-422, 864 h, time 36 day, read-out: TGI
[6] = Antitumor activity against […] cells xenografted in mouse assessed as tumor growth inhibition at 30 mg/kg relative to control; assay type: functional; conditions: read-out: TGI
Polycomb protein EED [7] = target: T1, Polycomb protein EED; experiment: Inhibition of His-tagged EED (unknown origin) incubated for 30 mins in presence of biotinylated H3K27me3 peptide (19 to 33 aa) by alpha screening competitive binding assay method
Pfeiffer [8] = experiment: Antitumor activity against human Pfeiffer cells xenografted in NOD/SCID mouse assessed as tumor growth inhibition at 40 mg/kg, bid, po for 36 days relative to control; assay type: functional; conditions: 864 h, time 36 day, read-out: TGI
Pfeiffer [9] = experiment: Antitumor activity against human Pfeiffer cells assessed as tumor growth inhibition at 100 mg/kg, po, bid for 38 days relative to control; assay type: functional; conditions: 912 h, time 38 day, read-out: TGI
KARPAS-422 [10] = experiment: Antitumor activity against human KARPAS-422 cells xenografted in NOD/SCID mouse assessed as tumor growth inhibition at 40 mg/kg, bid, po for 36 days relative to control; assay type: functional; conditions: KARPAS-422, 864 h, time 36 day, read-out: TGI
KARPAS-422 [11] = experiment: Antitumor activity against human KARPAS-422 cells assessed as tumor growth inhibition at 100 mg/kg, po, bid for 38 days relative to control; assay type: functional; conditions: KARPAS-422, 912 h, time 38 day, read-out: TGI
KARPAS-422 [12] = experiment: Antiproliferative activity against human KARPAS-422 cells treated for 11 days; assay type: functional, cell-based; conditions: KARPAS-422, 264 h
Pfeiffer [13] = experiment: Antiproliferative activity against human Pfeiffer cells treated for 14 days; assay type: functional, cell-based; conditions: 336 h
Polycomb protein EED [14] = target: T1, Polycomb protein EED; experiment: Inhibition of human EED (76 to 441 residues) expressed in Escherichia coli strain BL21(DE3) by alpha screen assay
Polycomb protein EED [15] = target: T1, Polycomb protein EED; experiment: Binding affinity to EED (unknown origin) assessed as dissociation constant
Polycomb protein EED [16] = target: T1, Polycomb protein EED; experiment: Binding affinity to EED (unknown origin) assessed as dissociation constant by SPR analysis
[17] = Inhibition of PRC2 (unknown origin); design: species or system Homo sapiens
LNCaP C4-2 = experiment: Antiproliferative activity against human LNCaP C4-2 cells
[18] = Antiproliferative activity against human ARCaP cells expressing sh RNA EPLIN
[19] = Antiproliferative activity against human ARCaPE cells expressing sh Ctrl; conditions: ARCaP
LNCaP C4-2B [20] = experiment: Antiproliferative activity against human LNCaP C4-2B cells
LNCaP C4-2B [21] = experiment: Antiproliferative activity against human LNCaP C4-2B cells expressing TaxR
[22] = Inhibition of FITC-labeled EZH2 (39 to 63 residues) (unknown origin)/N-terminal 6x His-tagged human EED protein interaction by incubated for 2 hrs FP-based competitive assay
Polycomb protein EED [23] = target: T1, Polycomb protein EED; experiment: Binding affinity to human N-terminal His-6 tagged EED expressed in Escherichia coli strain […] by SPR analysis
KARPAS-422 [24] = experiment: Antiproliferative activity against human KARPAS-422 cells assessed as cell growth inhibition measured after 7 to 10 days by celltitre-glo-luminescent assay; assay type: functional; conditions: time 7-10 day
Polycomb protein EED [25] = target: T1, Polycomb protein EED; experiment: Inhibition of human N-terminal His-6 tagged EED expressed in Escherichia coli strain […] by SPR analysis
[26] = Solubility of the compound at pH 7.4; assay type: physicochemical; conditions: buffer
[27] = Inhibition of GST-tagged EZH2/FLAG-tagged EED (unknown origin) protein protein interaction incubated for 1 hr by AlphaLISA method; design: species or system Homo sapiens

CCCCC1C(=O)N(c2ccccc2)N(c2ccc(O)cc2)C1=O (stereo not drawn) [OXYPHENBUTAZONE ANHYDROUS]
Ki [1]: 44500 nM
IC50 [2]: 229000 nM

[2H]C([2H])(Nc1ncc(-c2cccnc2C)c(=O)n1C)c1c(F)ccc2c1CCO2
inhibition in vivo at 100 mg/kg (Pfeiffer [3]): 96%
IC50 (Polycomb protein EED [4]): 4.5 nM
inhibition in vivo at 100 mg/kg (KARPAS-422 [5]): 85%
inhibition in vivo at 30 mg/kg [6]: 59.3%
IC50 (Polycomb protein EED [7]): 4.5 nM
inhibition in vivo at 40 mg/kg (Pfeiffer [8]): 83%
inhibition in vivo at 100 mg/kg (Pfeiffer [9]): 96%
inhibition in vivo at 40 mg/kg (KARPAS-422 [10]): 75%
inhibition in vivo at 100 mg/kg (KARPAS-422 [11]): 85%

CN1CC=C(c2cnc(NCC3Cc4cc(F)ccc4O3)c3nncn23)CC1 (stereo not drawn)
IC50 (Polycomb protein EED [4]): < 100 nM

C[C@@H](CO)NC(=O)[C@@H]1C=C2c3cccc4[nH]cc(c34)C[C@H]2N(C)C1 [ERGONOVINE MALEATE]
Ki [1]: 71100 nM
IC50 [2]: 366000 nM

CC(=O)N1CC=C(c2cnc(NCC3Cc4cc(F)ccc4O3)n3cnnc23)CC1 (stereo not drawn)
IC50 (KARPAS-422 [12]): 7 nM
IC50 (Polycomb protein EED [4]): < 20 nM
IC50 (Pfeiffer [13]): 0.7 nM

Cc1nc(NCc2cccc3c2OCO3)sc1-c1ccn(C)n1
IC50 (Polycomb protein EED [14]): 2100 nM
Kd (Polycomb protein EED [15]): 5200 nM

Cc1ncccc1-c1cnc(NCc2c(F)ccc3c2CCO3)n2cnnc12
Kd (Polycomb protein EED [16]): 0.4 nM
IC50 [17]: 5 nM

Cc1nc(NCc2c(F)ccc3c2CCO3)sc1-c1ccnn1C
IC50 (Polycomb protein EED [14]): 2100 nM
Kd (Polycomb protein EED [15]): 900 nM

Cc1ncccc1-c1sc(NCc2c(F)ccc3c2CCO3)nc1C
IC50 (Polycomb protein EED [14]): 5600 nM
Kd (Polycomb protein EED [15]): 3700 nM

COC(=O)C1=C(C)NC(C)=C(C(=O)OC)C1c1ccccc1[N+](=O)[O-] [NIFEDIPINE]
Ki [1]: 66600 nM
IC50 [2]: 343000 nM

CCOP(=O)(OCC)C(NC(=O)[C@H](Cc1ccc(-c2ccccc2)cc1)NC(=O)/C=C/c1ccc(-c2ccccc2)cc1)P(=O)(OCC)OCC
IC50 (LNCaP C4-2): 56100 nM
IC50 [18]: 260 nM
IC50 [19]: 64900 nM
IC50 (LNCaP C4-2B [20]): 91100 nM
IC50 (LNCaP C4-2B [21]): 6870 nM

COc1ccc(CCN2CCC(Nc3nc4ccccc4n3Cc3ccc(F)cc3)CC2)cc1 [ASTEMIZOLE]
IC50 [22]: 93800 nM

Cc1ncsc1-c1ccc(CNC(=O)[C@@H]2C[C@@H](O)CN2C(=O)[C@@H](NC(=O)COc2ccc(OCCNC(=O)CCc3ccc(-c4cnc(NCc5c(F)ccc6c5CCO6)n5cnnc45)c(N)n3)cc2)C(C)(C)C)cc1
Kd (Polycomb protein EED [23]): 0.631 nM
GI50 (KARPAS-422 [24]): 45 nM
IC50 (Polycomb protein EED [25]): 6.76 nM

Cc1ncccc1-c1cnc(NCc2c(F)cc(O)c3c2CCO3)n2cnnc12
solubility [26]: 5 µM (≈ 1.96 µg/mL)
IC50 [17]: 15 nM

CCCCc1ccc(Nc2nnc(SCc3occc3C(=O)O)s2)cc1
IC50 [27]: 32000 nM

Cc1ncccc1-c1cnc(NCC2Cc3cc(F)ccc3O2)n2cc(C#N)nc12 (stereo not drawn)
IC50 (Polycomb protein EED [4]): < 100 nM

CN1CC=C(c2cnc(NCC3Cc4cc(F)ccc4O3)n3cnnc23)CC1 (stereo not drawn)
IC50 (KARPAS-422 [12]): 2.8 nM
IC50 (Polycomb protein EED [4]): < 20 nM
IC50 (Pfeiffer [13]): 2 nM

Cc1sc(NC(=O)CCCCC(=O)Nc2sc(C)c(C)c2C(N)=O)c(C(N)=O)c1C
IC50 [22]: 54900 nM

Cc1nc(CCC(=O)NCCCCC(=O)N[C@H](C(=O)N2C[C@H](O)C[C@H]2C(=O)NCc2ccc(-c3scnc3C)cc2)C(C)(C)C)ccc1-c1cnc(NCc2c(F)ccc3c2CCO3)n2cnnc12
Kd (Polycomb protein EED [23]): 0.537 nM
GI50 (KARPAS-422 [24]): 57 nM
IC50 (Polycomb protein EED [25]): 7.76 nM

CN1CC=C(c2cnc(NCC3Cc4cc(F)ccc4O3)c3cncnc23)CC1 (stereo not drawn)
IC50 (Polycomb protein EED [4]): < 100 nM
